In patent US20040115126A1, “Compositions and methods for the non-invasive detection of polypeptides in vivo” (The Regents of the University of Michigan, priority 2002, published 2004):

B1: TRAIL: TNF-related apoptosis inducing ligand (protein, UniProt P50591 1-281, looked up)
Tumor necrosis factor ligand …: MAMMEVQGGPSLGQTCVLIVIFTVLLQSLCVAVTYVYFTNELKQMQDKYSKSGIACFLKEDDSYWDPNDEESMNSPCWQVKWQLRQLVRKMILRTSEETISTVQEKQQNISPLVRERGPQRVAAHITGTRGRSNTLSSPNSKNEKALGRKINSWESSRSGHSFLSNLHLRNGELVIHEKGFYYIYSQTYFRFQEEIKENTKNDKQMVQYIYKYTSYPDPILLMKSARNSCWSKDAEYGLYSIYQGGIFELKENDRIFVSVTNEHLIDMDHEASFFGAFLVG

Legend:
[1] = tested on: 9L gliosarcoma cells genetically engineered to stably express firefly luciferase (9LLuc); assay: BCNU chemotherapy of orthotopic 9L-Luc rat brain tumors, log cell kill from serial MRI and BLI; assay type: in vivo; settings: intracerebral 9LLuc tumor, treated 16 days after implantation, mean ±SEM, n=5
Text: Current assessment of orthotopic tumor models in animals utilizes survival as the primary therapeutic endpoint. In vivo bioluminescence imaging ([…]) is a sensitive imaging modality that is rapid and accessible, and comprises an ideal tool for evaluating antineoplastic therapies. Using human tumor cell lines constitutively expressing luciferase, the kinetics of tumor growth and response to therapy have been assessed in intraperitoneal, subcutaneous and intravascular cancer models. […] Therefore, the ability of BLI to noninvasively quantitate the growth and therapeutic-induced cell kill of orthotopic rat brain tumors derived from 9L gliosarcoma cells genetically engineered to stably express firefly luciferase (9L^Luc) was investigated.
Intracerebral tumor burden was monitored over time by quantifying photon emission and tumor volume using a cryogenically-cooled CCD camera and magnetic resonance imaging (MRI), respectively. Excellent correlation (r=0.91) between detected photons and tumor volume was found.
FIGS. 5A-5O show a temporal analysis of the response of a 9L^Luc tumor to BCNU chemotherapy. […] Tumor volume was monitored with T2-weighted MRI (FIGS. 5A-5F) and infra-tumoral luciferase activity was monitored with BLI (FIGS. 5G-5L). […] Quantitative analysis of tumor progression and response to BCNU chemotherapy is shown by the graph FIG. 50. […]

[2] = tested on: D-54 cells expressing ER-Luc-ER caspase-3 reporter; assay: Western blot of caspase-3 reporter (ER-Luc-ER) cleavage in D-54 cells; assay type: cell-based; settings: various concentrations for 3 hrs
Experimental: FIG. 7 depicts a western blot showing induction of apoptosis. In D-54 cells, a caspase-3 reporter construct analogous to the one described in FIG. 6 except with ER domains as well as the caspase-3 cleavage sequence (DEVD) were present on the amino and carboxy termini (ER-Luc-ER) was used in the above studies. […] D-54 cells expressing this molecule were treated with TRAIL (TNF-related apoptosis inducing ligand) at various concentrations for 3 hrs.

[3] = tested on: D-54 derived stable cell line expressing a caspase-3 reporter molecule; assay: Non-invasive bioluminescence imaging of apoptosis in D-54 caspase-3 reporter tumors in nude mice; assay type: in vivo; settings: 50 ug intratumorally, s.q. D-54 reporter tumors in nude mice, IVIS imaging after luciferin
Text: FIG. 6 depicts one strategy for imaging apoptosis. In this example, an estrogen regulatory domain results in silencing of luciferase due to sequestration. Activation of caspase-3 during apoptosis results in cleavage at the DEVD site, thus, releasing luciferase from the silencing effects of the estrogen regulatory domain. The free luciferase can, in the presence of luciferin, generate bioluminescense which can be imaged in vitro or in vivo using a Xenogen camera system.
FIGS. 8A and 8B depict non-invasive imaging of apoptosis. D-54 derived stable cell line expressing a caspase-3 reporter molecule similar to that described in FIG. 6 was implanted s.q. into nude mice. When the tumors reached a palpatable size they were treated with vector only (PBS, Panel A) or with 50 ug of TRAIL intratumoraly (panel B). Bioluminescent activity within the tumor was then measured after injection of luciferin using a IVIS imaging system.

Molecule | Log cell kill calculated using BLI ([1]; BLI photon emission) | Log cell kill calculated using MRI ([1]; T2-weighted MRI tumor volume) | cleavage of ER-Luc-ER reporter (luciferase specific antibody western blot) [2] | increase in bioluminescence compared to the vector control [3]
O=NN(CCCl)C(=O)NCCCl [BCNU, 1,3-bis(2-chloroethyl)-1 nitrosourea] | 1.84±0.73 | 1.78±0.36 | – | –
B1 | – | – | cleaved to a 90 kD molecule (ER-Luc) and subsequently to Luc (60 kD) | 2-3 ×
